Patent US20250154109A1, “SODIUM CHANNEL BLOCKING COMPOUNDS, DERIVATIVES THEREOF, AND METHODS OF THEIR USE” (LATIGO BIOTHERAPEUTICS, INC, priority 2022, published 2025)
Where two headings read alike, the source gives them in different places.

Target: human Nav1.8 (Homo sapiens, UniProt Q9Y5Y9)
Test: SyncroPatch384PE assay (automated patch clamp)
Type: cell-based
Conditions: human Nav1.8/b3 CHO cells
Protocol: Compounds were tested on recombinant human Nav1.8/b3 stably transfected CHO cells using the SyncroPatch384PE system (Nanion Technologies), an automated patch clamp device. Cells were cultured at 37° C./5% CO2 in Ham's F-12 supplemented with 10% fetal bovine serum, 100 U/mL penicillin G sodium, […] streptomycin sulfate and selection antibiotics (0.01 mg/mL Blasticidin, 0.4 mg/mL Zeocin and 0.25 mg/mL Hygromycin). On the day of the recordings, cells in culture dishes were washed twice with Hank's Balanced Salt Solution (HBSS) and treated with Accutase for approximately 20 minutes. Immediately before use in the SynchroPatch384PE using an 8-hole NPC-384 chip, the cells were washed in HBSS to remove the Accutase and re-suspended in extracellular solution. All experiments were performed at ambient temperature. Intracellular solution contained (mM): CsCl, 50; CsF, 90; MgCl2, 5; EGTA, 1; HEPES, 10; pH adjusted to 7.2 with CsOH. Extracellular solution contained (mM): NaCl, 137; KCl, 4.0; CaCl2), 3.8; MgCl2, 1; HEPES, 10; Glucose, 10; pH adjusted to 7.4 with NaOH. 100 nM tetrodotoxin (TTX) was added to the extracellular solution to block endogenous TTX-sensitive sodium currents.
Compounds were tested in quadruplicate in 0.3% DMSO and 0.03% pluronic Acid. Compounds were diluted 1:3.33 in extracellular solution to create an 8-point concentration response curve. Each plate contained a historical positive control and up to ten compounds. 300 μM tetracaine and 0.3% DMSO+0.03% pluronic acid were used as high and low controls respectively.
Whole cell patch clamp recordings were conducted according to Nanion's standard procedure for SyncroPatch384PE®. Cells were held at a holding potential of −120 mV. A depolarization step to 10 mV for 30 ms was applied (P1 measurement), followed by a hyperpolarization step to −100 mV for 100 ms. An inactivation step at −35 mV for 10 sec was applied before stepping to −100 mV for 20 ms, followed by a step to 10 mV for 30 ms (P2 measurement) and then back to −100 mV for 30 ms. Sweep interval was 15 sec. Following establishment of the whole-cell configuration in extracellular solution, cells were washed in extracellular solution containing 0.3% DMSO and 0.03% pluronic acid to stabilize the baseline current. Compounds were then applied by the SynchroPatch384 PE system into each well and the current was recorded for five minutes in extracellular solution, followed by application of tetracaine to achieve full block at the end of experiment. The potency of the compounds was assessed on two read-outs, resting state block (P1 measurement) or inactivated state block (P2 measurement) to obtain IC50 values. Values were normalized to high (tetracaine) and low (DMSO+pluronic acid) controls.
Examples 1 to 219 and Examples 225 to 236 are assayed using SyncroPatch384PE assay described above.

[1] = inactivated state block (P2 measurement), read-out: P2 IC50
[2] = resting state block (P1 measurement), read-out: P1 IC50

Chain of human Nav1.8 (Q9Y5Y9 whole entry): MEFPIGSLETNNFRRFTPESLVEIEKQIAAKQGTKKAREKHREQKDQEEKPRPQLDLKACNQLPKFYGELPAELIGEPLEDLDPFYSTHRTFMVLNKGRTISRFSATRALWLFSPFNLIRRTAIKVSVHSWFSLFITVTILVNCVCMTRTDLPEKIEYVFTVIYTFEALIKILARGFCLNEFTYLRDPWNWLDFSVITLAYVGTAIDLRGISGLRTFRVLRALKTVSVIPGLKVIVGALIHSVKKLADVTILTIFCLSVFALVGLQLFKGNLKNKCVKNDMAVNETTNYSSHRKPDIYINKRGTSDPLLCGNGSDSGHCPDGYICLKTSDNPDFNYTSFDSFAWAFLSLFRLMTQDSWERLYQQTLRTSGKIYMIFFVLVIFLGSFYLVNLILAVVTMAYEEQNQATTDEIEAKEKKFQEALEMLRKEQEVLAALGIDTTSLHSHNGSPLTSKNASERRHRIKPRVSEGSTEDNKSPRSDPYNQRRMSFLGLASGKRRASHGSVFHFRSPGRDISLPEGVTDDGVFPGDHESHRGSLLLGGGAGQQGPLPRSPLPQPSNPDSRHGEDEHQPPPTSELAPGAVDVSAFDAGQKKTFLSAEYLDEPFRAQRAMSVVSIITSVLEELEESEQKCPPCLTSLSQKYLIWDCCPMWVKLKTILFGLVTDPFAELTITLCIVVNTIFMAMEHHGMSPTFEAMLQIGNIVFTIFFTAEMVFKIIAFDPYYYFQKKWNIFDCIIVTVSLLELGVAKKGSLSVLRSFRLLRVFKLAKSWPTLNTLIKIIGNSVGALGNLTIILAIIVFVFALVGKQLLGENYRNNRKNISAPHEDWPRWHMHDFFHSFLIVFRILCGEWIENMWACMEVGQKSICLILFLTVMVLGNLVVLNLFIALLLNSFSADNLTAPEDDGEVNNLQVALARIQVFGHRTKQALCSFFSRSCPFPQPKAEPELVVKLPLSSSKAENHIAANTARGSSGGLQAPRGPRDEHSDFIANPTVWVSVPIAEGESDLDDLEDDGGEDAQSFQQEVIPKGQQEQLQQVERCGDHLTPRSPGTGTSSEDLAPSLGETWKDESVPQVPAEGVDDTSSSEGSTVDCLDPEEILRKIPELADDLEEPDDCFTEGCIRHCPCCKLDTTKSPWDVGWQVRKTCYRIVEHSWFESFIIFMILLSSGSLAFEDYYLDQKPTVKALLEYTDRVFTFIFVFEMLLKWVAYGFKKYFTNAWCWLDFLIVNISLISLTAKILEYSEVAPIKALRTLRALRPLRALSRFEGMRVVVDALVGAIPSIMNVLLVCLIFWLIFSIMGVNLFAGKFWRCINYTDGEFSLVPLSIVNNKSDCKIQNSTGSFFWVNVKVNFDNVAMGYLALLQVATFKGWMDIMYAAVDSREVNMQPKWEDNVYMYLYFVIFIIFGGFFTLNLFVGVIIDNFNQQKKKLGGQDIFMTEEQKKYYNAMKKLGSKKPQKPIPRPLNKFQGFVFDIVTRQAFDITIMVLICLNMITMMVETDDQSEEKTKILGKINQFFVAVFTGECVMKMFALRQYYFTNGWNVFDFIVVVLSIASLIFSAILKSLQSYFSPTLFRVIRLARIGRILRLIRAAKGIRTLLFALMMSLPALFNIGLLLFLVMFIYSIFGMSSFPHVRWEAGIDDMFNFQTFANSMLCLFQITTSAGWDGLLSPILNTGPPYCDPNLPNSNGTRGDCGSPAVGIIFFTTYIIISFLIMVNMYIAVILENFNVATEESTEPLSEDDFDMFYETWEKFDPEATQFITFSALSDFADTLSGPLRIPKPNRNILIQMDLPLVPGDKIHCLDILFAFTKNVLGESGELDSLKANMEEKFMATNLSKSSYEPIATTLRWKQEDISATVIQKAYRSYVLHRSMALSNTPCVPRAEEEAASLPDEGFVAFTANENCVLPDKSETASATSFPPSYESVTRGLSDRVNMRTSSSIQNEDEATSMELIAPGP

| IC50 [1] [nM] | IC50 [2] [nM] | SMILES |
| --- | --- | --- |
| 50 to 100 | 50 to 100 | Cc1c(-c2cnn(C)c2)cnc(N2CCCC(F)(F)CC2)c1C(=O)Nc1cccc(S(C)(=N)=O)c1 (stereo not drawn) [Example 83, 2-(4,4-difluoroazepan-1-yl)-4-methyl-5-(1-methyl-1H-pyrazol-4-yl)-N-(3-(S-methylsulfonimidoyl)phenyl)nicotinamide] |
| 5 to 50 | 5 to 50 | Cc1c(C(F)(F)F)nnc(N2CCCC(F)(F)CC2)c1C(=O)Nc1ccnc(S(=N)(N)=O)c1 (stereo not drawn) [Example 119, 3-(4,4-difluoroazepan-1-yl)-5-methyl-N-(2-sulfamidimidoylpyridin-4-yl)-6-(trifluoromethyl)pyridazine-4-carboxamide] |
| ≤ 5 | ≤ 5 | Cc1c(-c2cnn(C)c2)cnc(N2CCCC(F)(F)CC2)c1C(=O)NC12CC(C(=O)O)(C1)C2 [Example 142, 3-(2-(4,4-difluoroazepan-1-yl)-4-methyl-5-(1-methyl-1H-pyrazol-4-yl)nicotinamido)bicyclo[1.1.1]pentane-1-carboxylic acid] |
| > 200 | > 200 | Cc1c(C#CCO)cnc(N2CCCC(F)(F)CC2)c1C(=O)Nc1cccc([S@](C)(=N)=O)c1 [Example 123, (R)-2-(4,4-difluoroazepan-1-yl)-5-(3-hydroxyprop-1-yn-1-yl)-4-methyl-N-(3-(S-methylsulfonimidoyl)phenyl)nicotinamide] |
| > 200 | > 200 | Cc1c(C(F)(F)F)nnc(N2CCC3(CC2)CC3)c1C(=O)Nc1cccc(S(C)(=N)=O)c1 (stereo not drawn) [Example 94, 5-methyl-N-(3-(S-methylsulfonimidoyl)phenyl)-3-(6-azaspiro[2.5]octan-6-yl)-6-(trifluoromethyl)pyridazine-4-carboxamide] |
| > 200 | > 200 | Cc1c(N2CC3(COC3)C2)cnc(N2CCCC(F)(F)CC2)c1C(=O)Nc1cccc([S@](C)(=N)=O)c1 [Example 116, (R)-2-(4,4-difluoroazepan-1-yl)-4-methyl-N-(3-(S-methylsulfonimidoyl)phenyl)-5-(2-oxa-6-azaspiro[3.3]heptan-6-yl)nicotinamide] |
| 5 to 50 | 5 to 50 | Cc1c(C#N)cnc(N2CCCC(F)(F)CC2)c1C(=O)Nc1cccc(S(C)(=N)=O)c1 (stereo not drawn) [Example 97, 5-cyano-2-(4,4-difluoroazepan-1-yl)-4-methyl-N-(3-(S-methylsulfonimidoyl)phenyl)nicotinamide] |
| 100 to 200 | > 200 | COc1ccc(-c2nnc(N3CCCC(F)(F)CC3)c(C(=O)Nc3cccc([S@](C)(=N)=O)c3)c2C)cc1 (single isomer, unassigned) [Example 138] |
| 50 to 100 | 50 to 100 | Cc1c(-c2ccncc2)cnc(N2CCCC(F)(F)CC2)c1C(=O)Nc1cccc(S(C)(=N)=O)c1 (stereo not drawn) [Example 85, 6-(4,4-difluoroazepan-1-yl)-4-methyl-N-(3-(S-methylsulfonimidoyl)phenyl)-[3,4bipyridine]-5-carboxamide] |
| ≤ 5 | ≤ 5 | C=CCCc1ccc(C(=O)Nc2cccc([S@@](C)(=N)=O)c2)c(N2CCCC(F)(F)CC2)n1 [Example 30, (S)-6-(3-Buten-1-yl)-2-(4,4-difluoroazepan-1-yl)-N-(3-(S-methylsulfonimidoyl)phenyl)nicotinamide] |
| 5 to 50 | 5 to 50 | Cc1c(C#N)cnc(N2CCCC(F)(F)CC2)c1C(=O)Nc1cccc([S@](C)(=N)=O)c1 [Example 125, (R)-5-cyano-2-(4,4-difluoroazepan-1-yl)-4-methyl-N-(3-(S-methylsulfonimidoyl)phenyl)nicotinamide] |
| > 200 | > 200 | NC(=O)c1cccc(NC(=O)c2nnc(C(F)(F)F)cc2N2CCCC(F)(F)CC2)c1 [Example 38, N-(3-Carbamoylphenyl)-4-(4,4-difluoroazepan-1-yl)-6-(trifluoromethyl)pyridazine-3-carboxamide] |
| 5 to 50 | 5 to 50 | Cc1nc(C(F)(F)F)nc(N2CCCC(F)(F)CC2)c1C(=O)Nc1cccc([S@](C)(=N)=O)c1 [Example 135, (R)-4-(4,4-difluoroazepan-1-yl)-6-methyl-N-(3-(S-methylsulfonimidoyl)phenyl)-2-(trifluoromethyl)pyrimidine-5-carboxamide] |
| ≤ 5 | ≤ 5 | Cc1c(-c2cccc(F)c2)cnc(N2CCCC(F)(F)CC2)c1C(=O)Nc1cccc(S(C)(=N)=O)c1 (stereo not drawn) [Example 82, 2-(4,4-difluoroazepan-1-yl)-5-(3-fluorophenyl)-4-methyl-N-(3-(S-methylsulfonimidoyl)phenyl)nicotinamide] |
| ≤ 5 | ≤ 5 | Cc1c(C(F)(F)F)nnc(N2CCCC(F)(F)CC2)c1C(=O)Nc1cccc([S@@](C)(=O)=NC(=O)CN)c1 [Example 177, (R)-3-(4,4-difluoroazepan-1-yl)-N-(3-(N-glycyl-S-methylsulfonimidoyl)phenyl)-5-methyl-6-(trifluoromethyl)pyridazine-4-carboxamide] |
| 5 to 50 | 5 to 50 | Cc1c(-c2nccs2)cnc(N2CCCC(F)(F)CC2)c1C(=O)Nc1cccc(S(C)(=N)=O)c1 (stereo not drawn) [Example 98, 2-(4,4-difluoroazepan-1-yl)-4-methyl-N-(3-(S-methylsulfonimidoyl)phenyl)-5-(thiazol-2-yl)nicotinamide] |
| 5 to 50 | 5 to 50 | Cc1c(-c2cnn(C)c2)cnc(N2CCCC(F)(F)CC2)c1C(=O)Nc1cccc([S@@](C)(=O)=NC(=O)[C@H](C)O)c1 [Example 231, 2-(4,4-difluoroazepan-1-yl)-N-(3-((R)-N-((S)-2-hydroxypropanoyl)-S-methylsulfonimidoyl)phenyl)-4-methyl-5-(1-methyl-1H-pyrazol-4-yl)nicotinamide] |
| ≤ 5 | ≤ 5 | Cc1c(C#N)c(C(F)(F)F)nc(N2CCCC(F)(F)CC2)c1C(=O)Nc1cccc([S@@](C)(=O)=NCCN)c1 [Example 196, (R)-N-(3-(N-(2-aminoethyl)-S-methylsulfonimidoyl)phenyl)-5-cyano-2-(4,4-difluoroazepan-1-yl)-4-methyl-6-(trifluoromethyl)nicotinamide] |
| ≤ 5 | ≤ 5 | Cc1c(C(F)(F)F)nnc(N2CCCC(F)(F)CC2)c1C(=O)Nc1cccc([S@@](C)(=O)=NC(=O)C2(N)CCC2)c1 [Example 234, (R)-N-(3-(N-(1-aminocyclobutane-1-carbonyl)-S-methylsulfonimidoyl)phenyl)-3-(4,4-difluoroazepan-1-yl)-5-methyl-6-(trifluoromethyl)pyridazine-4-carboxamide] |
| 5 to 50 | 5 to 50 | Cc1c(-c2cnn(C)c2)cnc(N2CCCC(F)(F)CC2)c1C(=O)Nc1cccc([S@@](C)(=O)=NC(=O)CO)c1 [Example 229, (R)-2-(4,4-difluoroazepan-1-yl)-N-(3-(N-(2-hydroxyacetyl)-S-methylsulfonimidoyl)phenyl)-4-methyl-5-(1-methyl-1H-pyrazol-4-yl)nicotinamide] |
| 5 to 50 | 5 to 50 | Cc1c(C(F)(F)F)nnc(N2CCCC(F)(F)CC2)c1C(=O)Nc1cccc([S@@](C)(=N)=O)c1 [Example 29, (S)-3-(4,4-Difluoroazepan-1-yl)-5-methyl-N-(3-(S-methylsulfonimidoyl)phenyl)-6-(trifluoromethyl)pyridazine-4-carboxamide] |
| 100 to 200 | 100 to 200 | Cc1cc(-c2cnn(C)c2)nc(N2CCCC(F)(F)CC2)c1C(=O)Nc1cccc([S@](C)(=N)=O)c1 [Example 151, (R)-2-(4,4-difluoroazepan-1-yl)-4-methyl-6-(1-methyl-1H-pyrazol-4-yl)-N-(3-(S-methylsulfonimidoyl)phenyl)nicotinamide] |
| ≤ 5 | ≤ 5 | Cc1nc(N2CCCC(F)(F)CC2)c(C(=O)Nc2cccc([S@@](C)(=N)=O)c2)c(C)c1C(F)(F)F (single isomer, unassigned) [Example 185] |
| ≤ 5 | ≤ 5 | Cc1c(C#CC2CC2)cnc(N2CCCC(F)(F)CC2)c1C(=O)Nc1cccc([S@](C)(=N)=O)c1 [Example 63, (R)-5-(cyclopropylethynyl)-2-(4,4-difluoroazepan-1-yl)-4-methyl-N-(3-(S-methylsulfonimidoyl)phenyl)nicotinamide] |
